Where “and” joins values, the source holds several entries; their conditions need not be identical. Identical values can stand only once. Like-named read-outs stand apart in the source and are kept apart here.
Assays:
[1] = First-in-human phase 1 study: plasma pharmacokinetics of Compound 1; assay type: in vivo; conditions: for AUC(0-inf) / Cmax / clearance / half-life: both sexes, human, plasma, intravenous, human plasma, single dose
From the text: The initial, first-in-human (FIH) phase 1 study was a double-blind, randomized, placebo-controlled, parallel-group, single- and multiple-dose-escalation study to assess the safety, tolerability, and pharmacokinetics of Compound 1 administered IV to healthy adult volunteers. In addition, the design of this FIH phase 1 study provided rationale and support for dosing for the proposed phase 2 study in patients with cUTI (see FIG. 11).
This study was designed with four escalating dose arms in both single-dose and multiple-dose phases. Compound 1 was formulated as a sterile solution at a concentration of 50 mg/mL in 10 mL glass vials for intravenous (IV) administration (“Compound 1 Injection”). To support high-dose, short-course therapy, the FIH phase 1 study investigated escalating doses with shorter durations at the higher dosages. At least 32 male and female healthy subjects (8 per Cohort) were randomized to receive a single dose of either Compound 1 Injection or placebo administered IV by 10 minute infusion in a double-blinded manner, as shown below:
Cohort 1a: 1 mg/kg Single Dose (SD) only
Cohort 1b: 4 mg/kg SD and Multiple Doses (MD) for 10 days
Cohort 2: 7 mg/kg SD and MD for 10 days
Cohort 3: 11 mg/kg SD and MD for 5 days
Cohort 4: 15 mg/kg SD and MD for 3 days
Blood and urine samples for safety laboratory tests were obtained during the screen period, before and after the single-dose, before and after the multiple-dose (additional samples were obtained during multiple-dose period depending on MD duration). Blood samples for PK analysis were obtained with the single dose and first and last multiple-doses at the following times:
5, 10, 15, 20, 30, 45, 60 minutes after the start of the infusion; and
1, 1.5, 2, 2.5 (Cohorts 3 and 4 only), 3, 4, 6, 8, 12, 16, 24, and 48 hours after the start of the infusion.
For subjects in the 10-day multiple-dose cohorts, additional blood samples for PK analysis were obtained predose on days 11, 13, and 15.

[2] = Pharmacokinetics of Compound 1 after single bolus IV injection in beagle dogs (plasma); assay type: in vivo; conditions: for AUC(0-inf) / C0 / clearance / MRT inf / Vd: iv; for MRT inf: read-out: MRT0-∞
Procedure: Male CD-1 mice, Sprague Dawley rats, and beagle dogs were administered Compound 1 intravenously. Compound 1 was preformulated as a sterile isotonic solution of 10 mg/mL in PBS. Specifically, male CD-1 mice were administered a single bolus IV injection of the Compound at 10 mg/kg, via a bolus IV injection into the tail vein. Two blood samples per mouse were collected by retro-orbital puncture into tubes containing the anticoagulant K2EDTA prior to dosing and at 0.033, 0.083, 0.25, 0.5, 1 and 24 hours. Rats were administered Compound 1 at 10 mg/kg via a bolus IV injection into the tail vein. Twelve blood samples per rat were collected via a jugular vein cannula into tubes containing the anticoagulant K2EDTA at various timepoints (i.e., 0.033, 0.083, 0.25, 0.5, 1, 2, 4, 6, 8, 10, 12, and 24 hours). Male beagle dogs were administered Compound 1 at 10 mg/kg through a temporary percutaneous catheter placed in a peripheral vein. Whole blood samples (0.5 mL) were collected from each dog prior to dosing and at 0.033, 0.083, 0.25, 0.5, 1, 2, 4, 6, 8, and 24 hours via direct venipuncture of a jugular or cephalic vein into tubes containing the anticoagulant K2EDTA. A sparse sampling method was employed to conserve animals and provide the best data possible from fewer mice. Samples were centrifuged, and plasma was collected and transferred into a new tube and frozen at −80° C. until they were analyzed.
Blood, urine, and kidney samples collected over 24 hours were analyzed for Compound 1 levels using LC-MS/MS. Method performance was acceptable in the concentration ranges necessary to determine plasma levels. Compound 1 plasma concentrations were determined by comparing Compound 1 concentration in the sample to a standard curve derived from LC-MS/MS measurements of the analyte. The standard curve fit was linear with a 1/x^2 weighting.
Bioanalytical data analyses were carried out using Analyst software (version 1.4.1, Applied Biosystems, Toronto, ON, Canada). […] PK parameters were determined by noncompartmental analysis using WinNonLin. Plasma protein binding was determined using equilibrium dialysis. In vitro stability was determined using commercially available plasma, microsomes and hepatocytes.

[3] = 1 mg/kg, 24 hours, Cohort 1 a (1 mg/kg), compartmental (2) analysis, ± SE
[4] = 1 mg/kg, 48 hours, Cohort 1a (1 mg/kg), noncompartmental analysis, ± SD
[5] = 4 mg/kg, 24 hours, Cohort 1b (4 mg/kg), compartmental (2) analysis, ± SE
[6] = 4 mg/kg, 48 hours, Cohort 1b (4 mg/kg), noncompartmental analysis, ± SD
[7] = 7 mg/kg, 24 hours, Cohort 2 (7 mg/kg), compartmental (2) analysis, ± SE
[8] = 7 mg/kg, 48 hours, Cohort 2 (7 mg/kg), noncompartmental analysis, ± SD
[9] = 11 mg/kg, 24 hours, Cohort 3 (11 mg/kg), compartmental (2) analysis, ± SE
[10] = 11 mg/kg, 48 hours, Cohort 3 (11 mg/kg), noncompartmental analysis, ± SD
[11] = 15 mg/kg, 24 hours, Cohort 4 (15 mg/kg), compartmental (2) analysis, ± SE
[12] = 15 mg/kg, 48 hours, Cohort 4 (15 mg/kg), noncompartmental analysis, ± SD
[13] = healthy volunteers, 1-15 mg/kg IV 10 minute infusion
[14] = beagle dogs, 10 mg/kg single bolus IV, Mean ± SD, 10 mg/kg
[15] = male, beagle, dog, plasma, 10 mg/kg, beagle dogs, 10 mg/kg single bolus IV, Dog 601
[16] = male, beagle, dog, plasma, 10 mg/kg, beagle dogs, 10 mg/kg single bolus IV, Dog 602
[17] = male, beagle, dog, plasma, 10 mg/kg, beagle dogs, 10 mg/kg single bolus IV, Dog 603
[18] = male, beagle, dog, plasma, 10 mg/kg, beagle dogs, 10 mg/kg single bolus IV, Mean ± SD

CN[C@@H]1[C@@H](O)[C@@H](O[C@@H]2[C@@H](O)[C@H](O[C@H]3OC(CNCCO)=CC[C@H]3N)[C@@H](N)C[C@H]2NC(=O)[C@@H](O)CCN)OC[C@]1(C)O [Compound 1, 6′-(2-Hydroxy-ethyl)-1-(4-amino-2(S)-hydroxy-butyryl)-sisomicin]
accumulation over three days ([1]; Cohort 4, 15 mg/kg every 24 hours for three days): very little, in any, accumulation | AUC(0-inf) [1, 3]: 15 ± 1 µg·h/mL | Cmax [1, 3]: 8 ± 0.8 µg/mL | clearance [1, 3]: 0.068 L/h/kg | half-life ([1]; 1 mg/kg, 24 hours, Cohort 1 a (1 mg/kg), compartmental (2) analysis, ± SE, read-out: t1/2 alpha (converted)): 0.5 ± 0.1 h | half-life ([1]; 1 mg/kg, 24 hours, Cohort 1 a (1 mg/kg), compartmental (2) analysis, ± SE, read-out: t1/2 beta (converted)): 3.5 ± 0.2 h | AUC(0-inf) ([1]; 1 mg/kg, 48 hours, Cohort 1a (1 mg/kg)): 14 ± 1 µg·h/mL | Cmax [1, 4]: 7 ± 0.7 µg/mL | clearance [1, 4]: 0.074 L/h/kg | AUC(0-inf) [1, 5]: 65 ± 4 µg·h/mL | Cmax [1, 5]: 38 ± 4 µg/mL | clearance [1, 5]: 0.062 L/h/kg | half-life ([1]; 4 mg/kg, 24 hours, Cohort 1b (4 mg/kg), compartmental (2) analysis, ± SE, read-out: t1/2 alpha (converted)): 0.3 ± 0.1 h | half-life ([1]; 4 mg/kg, 24 hours, Cohort 1b (4 mg/kg), compartmental (2) analysis, ± SE, read-out: t1/2 beta (converted)): 3 ± 0.1 h | AUC(0-inf) ([1]; 4 mg/kg, 48 hours, Cohort 1b (4 mg/kg)): 61 ± 8 µg·h/mL | Cmax [1, 6]: 32 ± 5 µg/mL | clearance [1, 6]: 0.067 L/h/kg | AUC(0-inf) [1, 7]: 89 ± 4 µg·h/mL | Cmax [1, 7]: 40 ± 3 µg/mL | clearance [1, 7]: 0.078 L/h/kg | half-life ([1]; 7 mg/kg, 24 hours, Cohort 2 (7 mg/kg), compartmental (2) analysis, ± SE, read-out: t1/2 alpha (converted)): 0.7 ± 0.1 h | half-life ([1]; 7 mg/kg, 24 hours, Cohort 2 (7 mg/kg), compartmental (2) analysis, ± SE, read-out: t1/2 beta (converted)): 3.1 ± 0.1 h | AUC(0-inf) ([1]; 7 mg/kg, 48 hours, Cohort 2 (7 mg/kg)): 88 ± 12 µg·h/mL | Cmax [1, 8]: 46 ± 7 µg/mL | clearance [1, 8]: 0.081 L/h/kg | AUC(0-inf) [1, 9]: 186 ± 8 µg·h/mL | Cmax [1, 9]: 106 ± 10 µg/mL | clearance [1, 9]: 0.059 L/h/kg | half-life ([1]; 11 mg/kg, 24 hours, Cohort 3 (11 mg/kg), compartmental (2) analysis, ± SE, read-out: t1/2 alpha (converted)): 0.3 ± 0.1 h | half-life ([1]; 11 mg/kg, 24 hours, Cohort 3 (11 mg/kg), compartmental (2) analysis, ± SE, read-out: t1/2 beta (converted)): 3.1 ± 0.1 h | AUC(0-inf) ([1]; 11 mg/kg, 48 hours, Cohort 3 (11 mg/kg)): 176 ± 34 µg·h/mL | Cmax [1, 10]: 114 ± 27 µg/mL | clearance [1, 10]: 0.065 L/h/kg | AUC(0-inf) [1, 11]: 250 ± 9 µg·h/mL | Cmax [1, 11]: 116 ± 8 µg/mL | clearance [1, 11]: 0.06 L/h/kg | half-life ([1]; 15 mg/kg, 24 hours, Cohort 4 (15 mg/kg), compartmental (2) analysis, ± SE, read-out: t1/2 alpha (converted)): 0.8 ± 0.1 h | half-life ([1]; 15 mg/kg, 24 hours, Cohort 4 (15 mg/kg), compartmental (2) analysis, ± SE, read-out: t1/2 beta (converted)): 3.1 ± 0.2 h | AUC(0-inf) ([1]; 15 mg/kg, 48 hours, Cohort 4 (15 mg/kg)): 242 ± 37 µg·h/mL | half-life ([1]; 15 mg/kg, 48 hours, Cohort 4 (15 mg/kg), compartmental (2) analysis, read-out: t½ alpha (converted)): 3 h | half-life ([1]; 15 mg/kg, 48 hours, Cohort 4 (15 mg/kg), compartmental (2) analysis, read-out: t½ beta (converted)): 15 h | Cmax [1, 12]: 144 ± 45 µg/mL | clearance [1, 12]: 0.063 L/h/kg | derived serum clearance rate across doses [1, 13]: remained constant | dose proportionality of plasma PK [1, 13]: clear dose proportionality | HL Lambda Z ([2]; beagle dogs, 10 mg/kg single bolus IV, Dog 601): 1.18 h | HL Lambda Z ([2]; beagle dogs, 10 mg/kg single bolus IV, Dog 602): 1.24 h | HL Lambda Z ([2]; beagle dogs, 10 mg/kg single bolus IV, Dog 603): 1.23 h | AUC0-∞ [2, 14]: 82.6 ± 11.5 µg·h/mL | HL Lambda Z [2, 14]: 1.22 h and 1.22 ± 0.03 h | half-life ([2]; male, beagle, dog, plasma, intravenous, 10 mg/kg, dogs, read-out: t½ (renal clearance) (converted)): ~1 h | AUC(0-inf) [2, 15]: 69.4 µg·h/mL | C0 [2, 15]: 134 µg/mL | clearance [2, 15]: 0.144 L/h/kg | MRT inf [2, 15]: 1.26 h | Vd ([2]; male, beagle, dog, plasma, 10 mg/kg, beagle dogs, 10 mg/kg single bolus IV, Dog 601, read-out: Vss): 0.181 L | AUC(0-inf) [2, 16]: 88.7 µg·h/mL | C0 [2, 16]: 119 µg/mL | clearance [2, 16]: 0.113 L/h/kg | MRT inf [2, 16]: 1.32 h | Vd ([2]; male, beagle, dog, plasma, 10 mg/kg, beagle dogs, 10 mg/kg single bolus IV, Dog 602, read-out: Vss): 0.149 L | AUC(0-inf) [2, 17]: 89.7 µg·h/mL | C0 [2, 17]: 106 µg/mL | clearance [2, 17]: 0.111 L/h/kg | MRT inf [2, 17]: 1.45 h | Vd ([2]; male, beagle, dog, plasma, 10 mg/kg, beagle dogs, 10 mg/kg single bolus IV, Dog 603, read-out: Vss): 0.162 L | AUC(0-inf) [2, 18]: 83 µg·h/mL | C0 [2, 18]: 120 µg/mL | clearance [2, 18]: 0.123 L/h/kg | MRT inf [2, 18]: 1.34 h | Vd ([2]; male, beagle, dog, plasma, 10 mg/kg, beagle dogs, 10 mg/kg single bolus IV, Mean ± SD, read-out: Vss): 0.164 ± 0.016 L | Vd ([2]; male, beagle, dog, plasma, 10 mg/kg, beagle dogs, 10 mg/kg single bolus IV, mean, read-out: volume of distribution at steady state): 0.164 L/kg

Source: patent publication US20120208781A1, “AMINOGLYCOSIDE DOSING REGIMENS” (Achaogen, Inc., priority 2009, published 2012)
